# Laboratory results published in patent US20260262643A1, “HERBICIDAL BENZOXAZINES” (FMC CORPORATION, priority 2022, published 2026).
# Legend:
# green foxtail [1] = assay: Test C postemergence; type: in vivo, Setaria viridis; conditions: 10 days
# Method in brief: (§1)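 Test material, in non-phytotoxic solvent with surfactant, was sprayed on the soil directly after seeding (preemergence) or on young plants of 2–10 cm with one to two leaves (postemergence). Greenhouse, 10 days; 0–100 visual control scale.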
# ryegrass, Italian [2] = assay: Test C preemergence; type: in vivo, Lolium multiflorum; conditions: 0 to 100 scale (0 no effect, 100 complete control); for Plant response rating, Ryegrass, Italian: Preemergence, 500 g ai/ha, visual rating after 10 days; for Ryegrass, Italian plant response rating: Test C, preemergence, 125 g ai/ha
# Method in brief: as §1
# ducksalad = assay: Test D flooded paddy test; type: in vivo, Heteranthera limosa; conditions: 250 g ai/ha, applied to paddy water, visual rating after 13 to 14 days, scale 0 to 100 (0 no effect, 100 complete control)
# Method in brief: (§2)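 Seedlings reached the 2-leaf stage, then pots were flooded to 3 cm over the soil surface. Compound was applied into the water, depth was maintained, and plants stayed in the greenhouse 13 to 14 days before visual scoring (0–100) relative to controls.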
# kochia [3] = assay: Test C postemergence; type: in vivo, Bassia scoparia; conditions: 10 days
# Method in brief: as §1
# barnyardgrass [4] = assay: Test D flooded paddy test; type: in vivo, Echinochloa crus-galli; conditions: 250 g ai/ha, applied to paddy water, visual rating after 13 to 14 days, scale 0 to 100 (0 no effect, 100 complete control)
# Method in brief: as §2
# corn [5] = assay: Test C postemergence; type: in vivo, Zea mays; conditions: 10 days
# Method in brief: as §1
# soybean [6] = assay: Test C postemergence; type: in vivo, Glycine max; conditions: 10 days
# Method in brief: as §1
# corn [7] = assay: Test C preemergence; type: in vivo, Zea mays; conditions: 0 to 100 scale (0 no effect, 100 complete control); for Plant response rating, Corn: Preemergence, 500 g ai/ha, visual rating after 10 days; for Corn plant response rating: Test C, preemergence, 125 g ai/ha
# Method in brief: as §1
# barnyardgrass [8] = assay: Test C preemergence; type: in vivo, Echinochloa crusgalli; conditions: 0 to 100 scale (0 no effect, 100 complete control); for Plant response rating, Barnyardgrass: Preemergence, 500 g ai/ha, visual rating after 10 days; for Barnyardgrass plant response rating: Test C, preemergence, 125 g ai/ha
# Method in brief: as §1
# barnyardgrass [9] = assay: Test C postemergence; type: in vivo, Echinochloa crusgalli; conditions: 10 days
# Method in brief: as §1
# ragweed [10] = assay: Test C postemergence; type: in vivo, Ambrosia artemisiifolia; conditions: 10 days
# Method in brief: as §1
# wheat [11] = assay: Test C preemergence; type: in vivo, Triticum aestivum; conditions: 0 to 100 scale (0 no effect, 100 complete control); for Plant response rating, Wheat: Preemergence, 500 g ai/ha, visual rating after 10 days; for Wheat plant response rating: Test C, preemergence, 125 g ai/ha
# Method in brief: as §1
# blackgrass [12] = assay: Test C preemergence; type: in vivo, Alopecurus myosuroides; conditions: 0 to 100 scale (0 no effect, 100 complete control); for Plant response rating, Blackgrass: Preemergence, 500 g ai/ha, visual rating after 10 days; for Blackgrass plant response rating: Test C, preemergence, 125 g ai/ha
# Method in brief: as §1
# blackgrass [13] = assay: Test C postemergence; type: in vivo, Alopecurus myosuroides; conditions: 10 days
# Method in brief: as §1
# kochia [14] = assay: Test C preemergence; type: in vivo, Bassia scoparia; conditions: 0 to 100 scale (0 no effect, 100 complete control); for Plant response rating, Kochia: Preemergence, 500 g ai/ha, visual rating after 10 days; for Kochia plant response rating: Test C, preemergence, 125 g ai/ha
# Method in brief: as §1
# wheat [15] = assay: Test C postemergence; type: in vivo, Triticum aestivum; conditions: 10 days
# Method in brief: as §1
# pigweed, palmer [16] = assay: Test C postemergence; type: in vivo, Amaranthus palmeri; conditions: 10 days
# Method in brief: as §1
# green foxtail [17] = assay: Test C preemergence; type: in vivo, Setaria viridis; conditions: 0 to 100 scale (0 no effect, 100 complete control); for Plant response rating, Foxtail, Green: Preemergence, 500 g ai/ha, visual rating after 10 days; for Foxtail, Green plant response rating: Test C, preemergence, 125 g ai/ha
# Method in brief: as §1
# horseweed = assay: Test C postemergence; type: in vivo, Erigeron canadensis; conditions: 10 days
# Method in brief: as §1
# pigweed, palmer [18] = assay: Test C preemergence; type: in vivo, Amaranthus palmeri; conditions: 0 to 100 scale (0 no effect, 100 complete control); for Plant response rating, Pigweed, Palmer: Preemergence, 500 g ai/ha, visual rating after 10 days; for Pigweed, Palmer plant response rating: Test C, preemergence, 125 g ai/ha
# Method in brief: as §1
# ryegrass, Italian [19] = assay: Test C postemergence; type: in vivo, Lolium multiflorum; conditions: 10 days
# Method in brief: as §1
# galium = assay: Test C postemergence; type: in vivo, Galium aparine; conditions: 10 days
# Method in brief: as §1
# soybean [20] = assay: Test C preemergence; type: in vivo, Glycine max; conditions: 0 to 100 scale (0 no effect, 100 complete control); for Plant response rating, Soybean: Preemergence, 500 g ai/ha, visual rating after 10 days; for Soybean plant response rating: Test C, preemergence, 125 g ai/ha
# Method in brief: as §1
# oat, wild [21] = assay: Test C preemergence; type: in vivo, Avena fatua; conditions: 0 to 100 scale (0 no effect, 100 complete control); for Plant response rating, Oat, Wild: Preemergence, 500 g ai/ha, visual rating after 10 days; for Oat, Wild plant response rating: Test C, preemergence, 125 g ai/ha
# Method in brief: as §1
# ragweed [22] = assay: Test C preemergence; type: in vivo, Ambrosia artemisiifolia; conditions: 0 to 100 scale (0 no effect, 100 complete control); for Plant response rating, Ragweed: Preemergence, 500 g ai/ha, visual rating after 10 days; for Ragweed plant response rating: Test C, preemergence, 125 g ai/ha
# Method in brief: as §1
# rice = assay: Test D flooded paddy test; type: in vivo, Oryza sativa; conditions: 250 g ai/ha, applied to paddy water, visual rating after 13 to 14 days, scale 0 to 100 (0 no effect, 100 complete control)
# Method in brief: as §2
# oat, wild [23] = assay: Test C postemergence; type: in vivo, Avena fatua; conditions: 10 days
# Method in brief: as §1
# sedge, umbrella = assay: Test D flooded paddy test; type: in vivo, Cyperus difformis; conditions: 250 g ai/ha, applied to paddy water, visual rating after 13 to 14 days, scale 0 to 100 (0 no effect, 100 complete control)
# Method in brief: as §2
# [24] = 125 g ai/ha, postemergence, 0 to 100 scale, 0 no effect, 100 complete control
# [25] = Postemergence, 500 g ai/ha, visual 0 to 100 scale (0 no effect, 100 complete control)
compound,measurement,setting,value
COc1ccc(-n2cncn2)cc1C(=O)N1C[C@H](C)Oc2c(Cl)cccc21 [Compound 241],"Plant response rating, Foxtail, Green",green foxtail [1]; [24],90
same,"Plant response rating, Foxtail, Green",green foxtail [1]; [25],90
same,"Plant response rating, Ryegrass, Italian","ryegrass, Italian [2]",90
same,"Ryegrass, Italian plant response rating","ryegrass, Italian [2]",90
same,"Plant response rating, Ducksalad (Flood)",ducksalad,90
same,"Plant response rating, Kochia",kochia [3]; [24],20
same,"Plant response rating, Kochia",kochia [3]; [25],70
same,"Plant response rating, Barnyardgrass (Flood)",barnyardgrass [4],50
same,"Plant response rating, Corn",corn [5]; [24],60
same,"Plant response rating, Corn",corn [5]; [25],100
same,"Plant response rating, Soybean",soybean [6]; [24],100
same,"Plant response rating, Soybean",soybean [6]; [25],100
same,"Plant response rating, Corn",corn [7],70
same,Corn plant response rating,corn [7],20
same,"Plant response rating, Barnyardgrass",barnyardgrass [8],100
same,Barnyardgrass plant response rating,barnyardgrass [8],90
same,"Plant response rating, Barnyardgrass",barnyardgrass [9]; [24],100
same,"Plant response rating, Barnyardgrass",barnyardgrass [9]; [25],100
same,"Plant response rating, Ragweed",ragweed [10]; [24],50
same,"Plant response rating, Ragweed",ragweed [10]; [25],90
same,"Plant response rating, Wheat",wheat [11],90
same,Wheat plant response rating,wheat [11],60
same,"Plant response rating, Blackgrass",blackgrass [12],70
same,Blackgrass plant response rating,blackgrass [12],50
same,"Plant response rating, Blackgrass",blackgrass [13]; [24],90
same,"Plant response rating, Blackgrass",blackgrass [13]; [25],100
same,"Plant response rating, Kochia",kochia [14],80
same,Kochia plant response rating,kochia [14],20
same,"Plant response rating, Wheat",wheat [15]; [24],50
same,"Plant response rating, Wheat",wheat [15]; [25],90
same,"Plant response rating, Pigweed, Palmer","pigweed, palmer [16]; [24]",70
same,"Plant response rating, Pigweed, Palmer","pigweed, palmer [16]; [25]",90
same,"Plant response rating, Foxtail, Green",green foxtail [17],100
same,"Foxtail, Green plant response rating",green foxtail [17],100
same,"Plant response rating, Horseweed",horseweed; [24],50
same,"Plant response rating, Horseweed",horseweed; [25],90
same,"Plant response rating, Pigweed, Palmer","pigweed, palmer [18]",100
same,"Pigweed, Palmer plant response rating","pigweed, palmer [18]",100
same,"Plant response rating, Ryegrass, Italian","ryegrass, Italian [19]; [24]",90
same,"Plant response rating, Ryegrass, Italian","ryegrass, Italian [19]; [25]",100
same,"Plant response rating, Galium",galium; [24],100
same,"Plant response rating, Galium",galium; [25],100
same,"Plant response rating, Soybean",soybean [20],100
same,Soybean plant response rating,soybean [20],100
same,"Plant response rating, Oat, Wild","oat, wild [21]",90
same,"Oat, Wild plant response rating","oat, wild [21]",50
same,"Plant response rating, Ragweed",ragweed [22],10
same,Ragweed plant response rating,ragweed [22],10
same,"Plant response rating, Rice (Flood)",rice,15
same,"Plant response rating, Oat, Wild","oat, wild [23]; [24]",60
same,"Plant response rating, Oat, Wild","oat, wild [23]; [25]",90
same,"Plant response rating, Sedge, Umbrella (Flood)","sedge, umbrella",100
Cc1ccc(-n2cnc(C3(C(F)(F)F)CC3)n2)cc1C(=O)N1C[C@H](C)Oc2c(Cl)cccc21 [Compound 175],"Plant response rating, Foxtail, Green",green foxtail [1]; [24],30
same,"Plant response rating, Foxtail, Green",green foxtail [1]; [25],70
same,"Plant response rating, Ryegrass, Italian","ryegrass, Italian [2]",90
same,"Ryegrass, Italian plant response rating","ryegrass, Italian [2]",80
same,"Plant response rating, Ducksalad (Flood)",ducksalad,0
same,"Plant response rating, Kochia",kochia [3]; [24],90
same,"Plant response rating, Kochia",kochia [3]; [25],100
same,"Plant response rating, Barnyardgrass (Flood)",barnyardgrass [4],0
same,"Plant response rating, Corn",corn [5]; [24],0
same,"Plant response rating, Corn",corn [5]; [25],20
same,"Plant response rating, Soybean",soybean [6]; [24],100
same,"Plant response rating, Soybean",soybean [6]; [25],100
same,"Plant response rating, Corn",corn [7],20
same,Corn plant response rating,corn [7],0
same,"Plant response rating, Barnyardgrass",barnyardgrass [8],100
same,Barnyardgrass plant response rating,barnyardgrass [8],70
same,"Plant response rating, Barnyardgrass",barnyardgrass [9]; [24],20
same,"Plant response rating, Barnyardgrass",barnyardgrass [9]; [25],50
same,"Plant response rating, Ragweed",ragweed [10]; [24],20
same,"Plant response rating, Ragweed",ragweed [10]; [25],70
same,"Plant response rating, Wheat",wheat [11],20
same,Wheat plant response rating,wheat [11],20
same,"Plant response rating, Blackgrass",blackgrass [12],10
same,Blackgrass plant response rating,blackgrass [12],0
same,"Plant response rating, Blackgrass",blackgrass [13]; [24],10
same,"Plant response rating, Blackgrass",blackgrass [13]; [25],50
same,"Plant response rating, Kochia",kochia [14],100
same,Kochia plant response rating,kochia [14],40
same,"Plant response rating, Wheat",wheat [15]; [24],10
same,"Plant response rating, Wheat",wheat [15]; [25],10
same,"Plant response rating, Pigweed, Palmer","pigweed, palmer [16]; [24]",90
same,"Plant response rating, Pigweed, Palmer","pigweed, palmer [16]; [25]",90
same,"Plant response rating, Foxtail, Green",green foxtail [17],100
same,"Foxtail, Green plant response rating",green foxtail [17],90
same,"Plant response rating, Horseweed",horseweed; [24],80
same,"Plant response rating, Horseweed",horseweed; [25],60
same,"Plant response rating, Pigweed, Palmer","pigweed, palmer [18]",100
same,"Pigweed, Palmer plant response rating","pigweed, palmer [18]",100
same,"Plant response rating, Ryegrass, Italian","ryegrass, Italian [19]; [24]",50
same,"Plant response rating, Ryegrass, Italian","ryegrass, Italian [19]; [25]",60
same,"Plant response rating, Galium",galium; [24],90
same,"Plant response rating, Galium",galium; [25],90
same,"Plant response rating, Soybean",soybean [20],90
same,Soybean plant response rating,soybean [20],60
same,"Plant response rating, Oat, Wild","oat, wild [21]",50
same,"Oat, Wild plant response rating","oat, wild [21]",20
same,"Plant response rating, Ragweed",ragweed [22],70
same,Ragweed plant response rating,ragweed [22],20
same,"Plant response rating, Rice (Flood)",rice,0
same,"Plant response rating, Oat, Wild","oat, wild [23]; [24]",10
same,"Plant response rating, Oat, Wild","oat, wild [23]; [25]",20
same,"Plant response rating, Sedge, Umbrella (Flood)","sedge, umbrella",0
